Literature values as cited in article PMC11542186, “Pin1 WW Domain Ligand Library Synthesized with an Easy Solid-Phase Phosphorylating Reagent” (Biochemistry, 2024).
Where a SMILES comes first, the peptide text is derived from it. [ ]: non-standard residue; d: D form. pT = C[C@@H](OP(=O)(O)O)[C@H](N)C(=O)O

Target: isolated Pin1 WW domain
Design: method as in PMID 16033261
Conditions: measured by NMR for the isolated Pin1 WW domain; cited from earlier work

Structure (SMILES): CC(=O)N[C@H](C(=O)N1CCC[C@H]1C(N)=O)[C@@H](C)OP(=O)(O)O [Ac–pThr–Pro–NH2] (Ac-[pT]-Pro-NH2)
- Kd: 150 µM
